Tests used:
[1] = molecular target: Serine/threonine-protein kinase N1 (Homo sapiens) (UniProt Q16512); conditions: Compound concentration 1000.0 nM
[2] = molecular target: Serine/threonine-protein kinase Nek2 (Homo sapiens) (UniProt P51955); conditions: Compound concentration 1000.0 nM
[3] = molecular target: Dual specificity mitogen-activated protein kinase kinase 6 (Homo sapiens) (UniProt P52564); conditions: Compound concentration 1000.0 nM
[4] = molecular target: Cyclin-dependent kinase 16 (Homo sapiens) (UniProt Q00536); conditions: Compound concentration 1000.0 nM
[5] = molecular target: Tyrosine-protein kinase Tec (Homo sapiens) (UniProt P42680); conditions: Compound concentration 1000.0 nM
[6] = molecular target: Serine/threonine-protein kinase 16 (Homo sapiens) (UniProt O75716); conditions: Compound concentration 1000.0 nM
[7] = molecular target: Vascular endothelial growth factor receptor 1 (Homo sapiens) (UniProt P17948); conditions: Compound concentration 1000.0 nM
[8] = molecular target: Maternal embryonic leucine zipper kinase (Homo sapiens) (UniProt Q14680); conditions: Compound concentration 1000.0 nM
[9] = molecular target: D(3) dopamine receptor (Homo sapiens) (UniProt P35462); conditions: Compound concentration 10.0 uM
[10] = molecular target: Receptor-interacting serine/threonine-protein kinase 4 (Homo sapiens) (UniProt P57078); conditions: Compound concentration 1000.0 nM
[11] = molecular target: Serine/threonine-protein kinase WNK2 (Homo sapiens) (UniProt Q9Y3S1); conditions: Compound concentration 1000.0 nM
[12] = molecular target: Cyclin-dependent kinase 11B (Homo sapiens) (UniProt P21127); conditions: Compound concentration 1000.0 nM
[13] = molecular target: AP2-associated protein kinase 1 (Homo sapiens) (UniProt Q2M2I8); conditions: Compound concentration 1000.0 nM
[14] = molecular target: Calcium/calmodulin-dependent protein kinase kinase 2 (Homo sapiens) (UniProt Q96RR4); conditions: Compound concentration 1000.0 nM
[15] = molecular target: Activin receptor type-1 (Homo sapiens) (UniProt Q04771); conditions: Compound concentration 1000.0 nM
[16] = molecular target: NT-3 growth factor receptor (Homo sapiens) (UniProt Q16288); conditions: Compound concentration 1000.0 nM
[17] = molecular target: Serine/threonine-protein kinase Nek10 (Homo sapiens) (UniProt Q6ZWH5); conditions: Compound concentration 1000.0 nM
[18] = molecular target: Ephrin type-A receptor 6 (Homo sapiens) (UniProt Q9UF33); conditions: Compound concentration 1000.0 nM
[19] = molecular target: Calcium/calmodulin-dependent protein kinase type 1G (Homo sapiens) (UniProt Q96NX5); conditions: Compound concentration 1000.0 nM
[20] = molecular target: Tyrosine-protein kinase JAK1 (Homo sapiens) (UniProt P23458); conditions: Compound concentration 1000.0 nM
[21] = molecular target: Rhodopsin kinase GRK1 (Homo sapiens) (UniProt Q15835); conditions: Compound concentration 1000.0 nM
[22] = molecular target: Serine/threonine-protein kinase PAK 4 (Homo sapiens) (UniProt O96013); conditions: Compound concentration 1000.0 nM
[23] = system: Tyrosine-protein kinase ABL1 (Homo sapiens), P00519 [Q252H]; conditions: Compound concentration 1000.0 nM
[24] = system: Epidermal growth factor receptor (Homo sapiens), P00533 [L858R]; conditions: Compound concentration 1000.0 nM
[25] = molecular target: Serine/threonine-protein kinase LATS1 (Homo sapiens) (UniProt O95835); conditions: Compound concentration 1000.0 nM
[26] = molecular target: Bone morphogenetic protein receptor type-2 (Homo sapiens) (UniProt Q13873); conditions: Compound concentration 1000.0 nM
[27] = molecular target: Mitogen-activated protein kinase kinase kinase 1 (Homo sapiens) (UniProt Q13233); conditions: Compound concentration 1000.0 nM
[28] = system: Phosphatidylinositol 4,5-bisphosphate 3-kinase catalytic subunit alpha isoform (Homo sapiens), P42336 [H1047Y]; conditions: Compound concentration 1000.0 nM
[29] = molecular target: Mitogen-activated protein kinase kinase kinase 7 (Homo sapiens) (UniProt O43318); conditions: Compound concentration 1000.0 nM
[30] = molecular target: Protein kinase C iota type (Homo sapiens) (UniProt P41743); conditions: Compound concentration 1000.0 nM
[31] = system: Mast/stem cell growth factor receptor Kit (Homo sapiens), P10721 [D816H]; conditions: Compound concentration 1000.0 nM
[32] = molecular target: Dual specificity protein kinase CLK3 (Homo sapiens) (UniProt P49761); conditions: Compound concentration 1000.0 nM
[33] = molecular target: MAP/microtubule affinity-regulating kinase 4 (Homo sapiens) (UniProt Q96L34); conditions: Compound concentration 1000.0 nM
[34] = molecular target: SRSF protein kinase 1 (Homo sapiens) (UniProt Q96SB4); conditions: Compound concentration 1000.0 nM
[35] = molecular target: Tyrosine-protein kinase Yes (Homo sapiens) (UniProt P07947); conditions: Compound concentration 1000.0 nM
[36] = molecular target: Serine/threonine-protein kinase PLK2 (Homo sapiens) (UniProt Q9NYY3); conditions: Compound concentration 1000.0 nM
[37] = molecular target: Mitogen-activated protein kinase 4 (Homo sapiens) (UniProt P31152); conditions: Compound concentration 1000.0 nM
[38] = system: Epidermal growth factor receptor (Homo sapiens), P00533 [L858R,T790M]; conditions: Compound concentration 1000.0 nM
[39] = molecular target: Ephrin type-B receptor 1 (Homo sapiens) (UniProt P54762); conditions: Compound concentration 1000.0 nM
[40] = molecular target: Cyclin-dependent kinase 13 (Homo sapiens) (UniProt Q14004); conditions: Compound concentration 1000.0 nM
[41] = molecular target: Serine/threonine-protein kinase Nek6 (Homo sapiens) (UniProt Q9HC98); conditions: Compound concentration 1000.0 nM
[42] = molecular target: Mitogen-activated protein kinase 10 (Homo sapiens) (UniProt P53779); conditions: Compound concentration 1000.0 nM
[43] = molecular target: 5-hydroxytryptamine receptor 2B (Homo sapiens) (UniProt P41595); conditions: Compound concentration 10.0 uM
[44] = molecular target: Serine/threonine-protein kinase VRK2 (Homo sapiens) (UniProt Q86Y07); conditions: Compound concentration 1000.0 nM
[45] = molecular target: Serine/threonine-protein kinase 32B (Homo sapiens) (UniProt Q9NY57); conditions: Compound concentration 1000.0 nM
Chain of Serine/threonine-protein kinase 32B (Homo sapiens) (Q9NY57 whole entry): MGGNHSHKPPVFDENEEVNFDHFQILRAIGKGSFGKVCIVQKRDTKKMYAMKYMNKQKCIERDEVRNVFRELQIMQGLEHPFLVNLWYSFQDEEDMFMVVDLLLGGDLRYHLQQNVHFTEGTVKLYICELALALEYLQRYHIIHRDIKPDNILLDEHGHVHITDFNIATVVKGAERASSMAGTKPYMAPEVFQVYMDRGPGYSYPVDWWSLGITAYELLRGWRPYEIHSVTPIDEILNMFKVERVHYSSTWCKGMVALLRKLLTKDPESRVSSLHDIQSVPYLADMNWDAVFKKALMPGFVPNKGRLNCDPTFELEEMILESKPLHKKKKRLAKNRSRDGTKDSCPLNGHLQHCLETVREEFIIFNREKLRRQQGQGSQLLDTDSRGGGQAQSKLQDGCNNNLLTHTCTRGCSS

Chain of Serine/threonine-protein kinase N1 (Homo sapiens) (Q16512 2-942 limits assumed): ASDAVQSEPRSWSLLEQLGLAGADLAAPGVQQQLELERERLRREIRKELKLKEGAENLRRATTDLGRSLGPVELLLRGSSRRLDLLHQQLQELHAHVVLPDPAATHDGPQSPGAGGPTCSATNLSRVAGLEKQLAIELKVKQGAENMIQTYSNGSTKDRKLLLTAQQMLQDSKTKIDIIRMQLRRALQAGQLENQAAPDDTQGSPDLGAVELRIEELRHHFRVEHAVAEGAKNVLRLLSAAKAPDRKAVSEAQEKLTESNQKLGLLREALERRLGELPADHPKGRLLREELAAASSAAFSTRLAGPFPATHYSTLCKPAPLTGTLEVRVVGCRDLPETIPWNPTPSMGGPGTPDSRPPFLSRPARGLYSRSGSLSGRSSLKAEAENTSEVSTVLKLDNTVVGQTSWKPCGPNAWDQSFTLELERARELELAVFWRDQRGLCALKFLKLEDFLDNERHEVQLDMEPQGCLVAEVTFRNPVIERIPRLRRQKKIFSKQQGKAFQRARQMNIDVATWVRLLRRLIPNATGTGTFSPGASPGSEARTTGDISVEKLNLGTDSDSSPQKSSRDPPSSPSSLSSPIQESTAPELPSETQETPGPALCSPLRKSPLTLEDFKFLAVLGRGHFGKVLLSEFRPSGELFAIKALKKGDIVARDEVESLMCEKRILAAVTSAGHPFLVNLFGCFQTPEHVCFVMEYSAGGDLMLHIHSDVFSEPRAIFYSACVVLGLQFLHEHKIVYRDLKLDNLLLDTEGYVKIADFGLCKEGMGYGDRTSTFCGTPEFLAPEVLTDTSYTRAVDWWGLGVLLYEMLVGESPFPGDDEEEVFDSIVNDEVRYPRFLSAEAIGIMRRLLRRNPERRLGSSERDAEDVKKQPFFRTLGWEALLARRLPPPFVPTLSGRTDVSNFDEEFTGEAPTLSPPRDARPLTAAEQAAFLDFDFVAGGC
Chain of Calcium/calmodulin-dependent protein kinase type 1G (Homo sapiens) (Q96NX5 whole entry): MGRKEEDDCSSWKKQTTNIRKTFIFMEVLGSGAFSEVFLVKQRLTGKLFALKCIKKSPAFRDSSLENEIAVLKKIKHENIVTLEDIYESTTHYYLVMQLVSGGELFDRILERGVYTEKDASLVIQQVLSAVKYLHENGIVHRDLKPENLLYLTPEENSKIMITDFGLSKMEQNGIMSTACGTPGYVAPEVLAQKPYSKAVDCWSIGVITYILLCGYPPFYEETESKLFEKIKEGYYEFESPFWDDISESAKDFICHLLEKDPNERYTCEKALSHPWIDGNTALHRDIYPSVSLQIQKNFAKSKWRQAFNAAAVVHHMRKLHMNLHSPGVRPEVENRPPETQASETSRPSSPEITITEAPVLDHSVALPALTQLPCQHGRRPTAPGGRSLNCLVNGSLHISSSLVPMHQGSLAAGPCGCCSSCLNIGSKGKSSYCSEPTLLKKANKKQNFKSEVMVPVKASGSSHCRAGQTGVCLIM
Chain of Cyclin-dependent kinase 11B (Homo sapiens) (P21127 whole entry): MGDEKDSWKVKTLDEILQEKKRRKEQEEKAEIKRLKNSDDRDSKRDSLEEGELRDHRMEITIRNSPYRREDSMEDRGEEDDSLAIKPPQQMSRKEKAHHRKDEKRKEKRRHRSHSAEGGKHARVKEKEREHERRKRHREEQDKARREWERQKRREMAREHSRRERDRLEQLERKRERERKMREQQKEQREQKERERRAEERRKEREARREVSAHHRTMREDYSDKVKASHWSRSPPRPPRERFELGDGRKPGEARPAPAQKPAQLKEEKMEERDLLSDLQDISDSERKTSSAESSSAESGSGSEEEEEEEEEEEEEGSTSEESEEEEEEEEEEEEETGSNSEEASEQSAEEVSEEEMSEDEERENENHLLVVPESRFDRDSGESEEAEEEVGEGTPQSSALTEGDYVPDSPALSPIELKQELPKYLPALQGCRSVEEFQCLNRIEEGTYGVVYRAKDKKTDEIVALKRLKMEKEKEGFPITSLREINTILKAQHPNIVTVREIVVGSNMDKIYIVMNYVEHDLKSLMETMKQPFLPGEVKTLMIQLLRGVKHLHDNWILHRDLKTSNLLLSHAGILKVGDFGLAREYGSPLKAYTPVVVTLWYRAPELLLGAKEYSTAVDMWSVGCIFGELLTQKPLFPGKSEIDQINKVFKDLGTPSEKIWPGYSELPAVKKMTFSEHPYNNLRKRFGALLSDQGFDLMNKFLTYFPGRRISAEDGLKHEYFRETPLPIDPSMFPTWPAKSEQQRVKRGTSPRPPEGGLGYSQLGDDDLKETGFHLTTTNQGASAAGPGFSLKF
Chain of Tyrosine-protein kinase JAK1 (Homo sapiens) (P23458 whole entry): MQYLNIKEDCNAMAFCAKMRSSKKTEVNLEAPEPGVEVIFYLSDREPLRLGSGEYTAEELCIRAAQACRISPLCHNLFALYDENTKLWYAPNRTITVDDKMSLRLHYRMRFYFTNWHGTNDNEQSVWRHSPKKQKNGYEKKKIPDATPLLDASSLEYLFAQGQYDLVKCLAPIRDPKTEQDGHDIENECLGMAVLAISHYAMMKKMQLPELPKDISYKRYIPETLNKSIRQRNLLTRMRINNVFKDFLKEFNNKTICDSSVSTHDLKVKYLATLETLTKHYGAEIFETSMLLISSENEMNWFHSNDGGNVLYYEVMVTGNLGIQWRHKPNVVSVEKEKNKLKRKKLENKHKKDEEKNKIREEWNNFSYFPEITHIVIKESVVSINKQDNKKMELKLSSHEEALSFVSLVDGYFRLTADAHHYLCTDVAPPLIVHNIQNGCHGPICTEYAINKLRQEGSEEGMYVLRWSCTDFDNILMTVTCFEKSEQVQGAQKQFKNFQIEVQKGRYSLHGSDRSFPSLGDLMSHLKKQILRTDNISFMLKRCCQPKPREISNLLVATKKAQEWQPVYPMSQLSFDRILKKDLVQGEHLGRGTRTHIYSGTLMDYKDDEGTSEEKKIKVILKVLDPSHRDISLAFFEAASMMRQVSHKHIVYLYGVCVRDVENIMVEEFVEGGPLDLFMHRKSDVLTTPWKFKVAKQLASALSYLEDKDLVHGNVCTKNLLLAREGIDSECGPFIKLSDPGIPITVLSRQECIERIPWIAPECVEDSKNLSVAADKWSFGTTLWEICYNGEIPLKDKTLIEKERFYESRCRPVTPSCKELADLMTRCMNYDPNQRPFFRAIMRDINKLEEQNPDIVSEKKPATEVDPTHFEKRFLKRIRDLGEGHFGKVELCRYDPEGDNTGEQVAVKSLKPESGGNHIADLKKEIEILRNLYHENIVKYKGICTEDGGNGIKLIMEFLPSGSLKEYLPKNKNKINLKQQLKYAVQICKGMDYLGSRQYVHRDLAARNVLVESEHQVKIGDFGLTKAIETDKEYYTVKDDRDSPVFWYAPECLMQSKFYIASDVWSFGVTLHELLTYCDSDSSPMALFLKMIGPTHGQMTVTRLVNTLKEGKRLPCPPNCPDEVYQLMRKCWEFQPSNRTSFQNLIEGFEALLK
Chain of MAP/microtubule affinity-regulating kinase 4 (Homo sapiens) (Q96L34 whole entry): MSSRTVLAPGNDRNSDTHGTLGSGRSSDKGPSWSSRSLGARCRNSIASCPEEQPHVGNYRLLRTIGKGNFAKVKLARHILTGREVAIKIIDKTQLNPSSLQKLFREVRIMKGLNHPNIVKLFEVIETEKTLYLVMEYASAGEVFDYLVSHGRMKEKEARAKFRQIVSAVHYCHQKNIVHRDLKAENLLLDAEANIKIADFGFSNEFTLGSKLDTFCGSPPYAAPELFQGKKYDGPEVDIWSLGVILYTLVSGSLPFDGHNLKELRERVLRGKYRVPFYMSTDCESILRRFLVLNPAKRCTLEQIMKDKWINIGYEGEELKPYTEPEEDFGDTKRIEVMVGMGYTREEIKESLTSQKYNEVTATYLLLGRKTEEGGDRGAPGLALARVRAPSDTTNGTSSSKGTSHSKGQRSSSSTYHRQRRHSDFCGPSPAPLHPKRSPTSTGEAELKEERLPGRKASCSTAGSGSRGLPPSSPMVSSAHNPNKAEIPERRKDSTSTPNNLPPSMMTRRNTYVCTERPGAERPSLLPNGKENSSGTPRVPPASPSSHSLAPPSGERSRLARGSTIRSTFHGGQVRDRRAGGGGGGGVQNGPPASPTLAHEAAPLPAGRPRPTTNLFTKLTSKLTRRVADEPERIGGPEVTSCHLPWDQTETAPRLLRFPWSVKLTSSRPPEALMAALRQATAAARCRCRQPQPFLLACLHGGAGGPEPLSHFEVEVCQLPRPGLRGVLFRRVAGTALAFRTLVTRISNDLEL
Chain of Dual specificity mitogen-activated protein kinase kinase 6 (Homo sapiens) (P52564 whole entry): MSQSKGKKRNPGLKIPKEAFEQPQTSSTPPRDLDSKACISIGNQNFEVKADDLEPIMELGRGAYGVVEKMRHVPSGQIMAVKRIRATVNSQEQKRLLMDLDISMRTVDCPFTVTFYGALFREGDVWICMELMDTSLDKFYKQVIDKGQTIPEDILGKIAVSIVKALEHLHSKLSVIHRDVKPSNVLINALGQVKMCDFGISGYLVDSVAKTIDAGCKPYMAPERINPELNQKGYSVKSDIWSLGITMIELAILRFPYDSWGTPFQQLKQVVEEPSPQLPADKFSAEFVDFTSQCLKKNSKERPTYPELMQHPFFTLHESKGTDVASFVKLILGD

Cc1c(NC(=O)c2cc(C(N)=O)nc3cc(F)ccc23)c(C(F)(F)F)nn1Cc1ccc(C(C)(C)C)cc1 [BAY-588]
inactive: residual activity [1] 100% | residual activity [2] 100% | residual activity [3] 92% | residual activity [4] 100% | residual activity [5] 94% | residual activity [6] 83% | residual activity [7] 100% | residual activity [8] 100% | inhibition [9] 11.9% | residual activity [10] 100% | residual activity [11] 100% | residual activity [12] 100% | residual activity [13] 83% | residual activity [14] 78% | residual activity [15] 100% | residual activity [16] 100% | residual activity [17] 100% | residual activity [18] 100% | residual activity [19] 100% | residual activity [20] 100% | residual activity [21] 83% | residual activity [22] 100% | residual activity [23] 100% | residual activity [24] 100% | residual activity [25] 100% | residual activity [26] 100% | residual activity [27] 100% | residual activity [28] 89% | residual activity [29] 100% | residual activity [30] 98% | residual activity [31] 100% | residual activity [32] 100% | residual activity [33] 97% | residual activity [34] 100% | residual activity [35] 100% | residual activity [36] 100% | residual activity [37] 100% | residual activity [38] 100% | residual activity [39] 86% | residual activity [40] 100% | residual activity [41] 86% | residual activity [42] 100% | inhibition [43] -8.78% | residual activity [44] 95% | residual activity [45] 100%

Cc1c(NC(=O)c2cc(C(N)=O)nc3cc(F)ccc23)c(C(F)(F)F)nn1Cc1ccc(C#N)cc1 [BAY-876]
inactive: residual activity [1] 98% | residual activity [2] 100% | residual activity [3] 100% | residual activity [4] 100% | residual activity [5] 85% | residual activity [6] 100% | residual activity [7] 98% | residual activity [8] 90% | inhibition [9] 1.46% | residual activity [10] 92% | residual activity [11] 87% | residual activity [12] 94% | residual activity [13] 79% | residual activity [14] 92% | residual activity [15] 87% | residual activity [16] 69% | residual activity [17] 83% | residual activity [18] 87% | residual activity [19] 75% | residual activity [20] 86% | residual activity [21] 87% | residual activity [22] 98% | residual activity [23] 81% | residual activity [24] 97% | residual activity [25] 94% | residual activity [26] 89% | residual activity [27] 65% | residual activity [28] 86% | residual activity [29] 68% | residual activity [30] 84% | residual activity [31] 60% | residual activity [32] 100% | residual activity [33] 100% | residual activity [34] 83% | residual activity [35] 66% | residual activity [36] 78% | residual activity [37] 76% | residual activity [38] 93% | residual activity [39] 66% | residual activity [40] 87% | residual activity [41] 100% | residual activity [42] 85% | inhibition [43] 11.1% | residual activity [44] 72% | residual activity [45] 100%
